# Results as given in US7638535B2, “4-(aminomethyl)-piperidine benzamides as 5HT4-antagonists” (Janssen Pharmaceutica N.V., priority 2003, dated 2009).
# Biological target: T1, h5-HT4b (Homo sapiens, UniProt Q13639)
# T1 construct: expressed in transfected cells; host or cells: HEK 293 (clone 9), membrane preparation
# Assay: 5HT4 antagonism: [3H]GR113808 binding to membranes of h5-HT4b-HEK 293 clone 9 cells
# Conditions: displacement of [3H]GR113808 0.1 nM, h5-HT4b-HEK 293 membranes, 30 min at 25° C.; read-out: pIC50 (5HT4 antagonistic data) (converted)
# Procedure: h5-HT4b-HEK 293 clone 9 cells were cultured in 150 mm Petri dishes and washed twice with cold PBS. The cells were then scraped from the plates and suspended in 50 mM Tris-HCl buffer, pH 7.4 and harvested by centrifugation at 23,500 rpm for 10 minutes. The pellet was resuspended in 5 mM Tris-HCl, pH 7.4 and homogenized with an Ultra Turrax homogenizer. The membranes were collected by centrifugation at 30,000 rpm for 20 min, resuspended in 50 mM Tris-HCl pH 7.4 and stored at −80° C. For the experiment, assay mixtures (0.5 ml) contained 50 μl of the tritiated ligand (5-HT4 antagonist [^3H]GR113808 0.1 nM) and 0.4 ml membrane preparation (15 μg protein/ml). 50 μl of 10% DMSO was added for total binding. 50 μl of 1 μM of (+)-trans-(1-butyl-3-hydroxy-4-piperidinyl)methyl 8-amino-7-chloro-2,3-dihydro-1,4-benzodioxin-5-carboxylate (a proprietary 5HT4 agonist of Janssen Pharmaceutica) was added for determination of non-specific binding.
# The [^3H]GR113808 assay buffer was 50 mM HEPES-NaOH, pH 7.4. The mixtures were incubated for 30 min at 25° C. The incubation was terminated by filtration over a Unifilter 96 GF/B presoaked in 0.1% polyethylenimine, followed by six washing steps with 50 mM HEPES-NaOH, pH 7.4.
# T1 sequence (Q13639 whole entry): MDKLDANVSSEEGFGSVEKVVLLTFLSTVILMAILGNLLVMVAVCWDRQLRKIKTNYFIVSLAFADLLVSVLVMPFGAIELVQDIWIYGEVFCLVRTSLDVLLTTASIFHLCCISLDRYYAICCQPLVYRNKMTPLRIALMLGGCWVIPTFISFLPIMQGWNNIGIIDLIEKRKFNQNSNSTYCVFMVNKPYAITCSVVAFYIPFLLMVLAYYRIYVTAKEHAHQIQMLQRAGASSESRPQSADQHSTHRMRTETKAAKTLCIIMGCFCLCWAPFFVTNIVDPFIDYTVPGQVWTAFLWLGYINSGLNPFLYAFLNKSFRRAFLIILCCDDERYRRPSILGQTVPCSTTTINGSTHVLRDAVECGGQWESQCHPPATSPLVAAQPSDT
row,SMILES,IC50 [nM]
1,CNc1cc2c(c(C(=O)NC[C@@H]3CCN(CCCOC4CCCCC4)C[C@H]3O)c1)OCCCO2 [compound 34],31.6
2,Nc1cc(C(=O)NC[C@@H]2CCN(Cc3ccc(F)cc3)C[C@H]2O)c2c(c1Cl)OCCO2 [compound 64],15.5
3,CNc1cc2c(c(C(=O)NC[C@@H]3CCN(Cc4ccc(F)cc4)C[C@H]3O)c1)OCCO2 [compound 56],17.8
4,COCCCCN1CC[C@@H](CNC(=O)c2cc(N)c(Cl)c3c2OCCCO3)[C@H](O)C1 [compound 58],14.1
5,COCCCN1CC[C@@H](CNC(=O)c2cc(N)c(Cl)c3c2OCCO3)[C@H](O)C1 [compound 9],16.2
6,CNCCCCN1CC[C@@H](CNC(=O)c2cc(NC)cc3c2OCCO3)[C@H](O)C1 [compound 90],34.7
7,CC(C)OCCCN1CC[C@@H](CNC(=O)c2cc(N)cc3c2OCCO3)[C@H](O)C1 [compound 23],19.1
8,Nc1cc(C(=O)NC[C@@H]2CCN(CCC3OCCO3)C[C@H]2O)c2c(c1Br)OCCCO2 [compound 146],34.7
9,Nc1cc2c(c(C(=O)NC[C@@H]3CCN(CCCC(=O)O)C[C@H]3O)c1)OCCO2 [compound 18],195
10,Nc1cc(C(=O)NC[C@@H]2CCN(CCCCO)C[C@H]2O)c2c(c1Cl)OCCO2 [compound 53],20
11,Nc1cc(C(=O)NC[C@@H]2CCN(CC3CCCO3)C[C@H]2O)c2c(c1Br)OCCCO2 (some centres unmarked) [compound 152],24
12,CCCCNc1cc2c(c(C(=O)NC[C@@H]3CCN(CCC4OCCO4)C[C@H]3O)c1)OCCCO2 [compound 144],112
13,CNc1cc(C(=O)NC[C@@H]2CCN(CCC3OCCO3)C[C@H]2O)c2c(c1Cl)OCCO2 [compound 30],31.6
14,CNc1cc2c(c(C(=O)NC[C@@H]3CCN(CCNS(C)(=O)=O)C[C@H]3O)c1)OCCO2 [compound 103],22.9
15,CCCCN1CC[C@@H](CNC(=O)c2cc(NC)c(Cl)c3c2OCCO3)[C@H](O)C1 [compound 28],15.5
16,CNc1cc(C(=O)NC[C@@H]2CCN(CCCO)C[C@H]2O)c2c(c1Cl)OCCO2 [compound 100],16.6
17,CNc1cc(C(=O)NC[C@@H]2CCN(CCCC#N)C[C@H]2O)c2c(c1Cl)OCCO2 [compound 130],55
18,COCCN1CC[C@@H](CNC(=O)c2cc(N)c(Cl)c3c2OCCCO3)[C@H](O)C1 [compound 79],39.8
19,Nc1cc(C(=O)NC[C@@H]2CCN(Cc3ccc(F)cc3)C[C@H]2O)c2c(c1Cl)OCCCO2 [compound 78],9.33
20,COCCCCN1CC[C@@H](CNC(=O)c2cc(N)c(Br)c3c2OCCO3)[C@H](O)C1 [compound 139],39.8
21,Nc1cc(C(=O)NC[C@@H]2CCN(CCC3OCCO3)C[C@H]2O)c2c(c1Cl)OCCO2 [compound 14],16.6
22,CCCCN1CC[C@@H](CNC(=O)c2cc(N)c(Cl)c3c2OCCCO3)[C@H](O)C1 [compound 46],8.32
23,Cc1cc2c(c(C(=O)NCC3(O)CCN(CCCC(N)=O)CC3)c1)OCCCO2 [compound 253],31.6
24,Nc1cc(C(=O)NC[C@@H]2CCN(CC3CCCO3)C[C@H]2O)c2c(c1Cl)OCCO2 (some centres unmarked) [compound 10],6.03
25,CNc1cc2c(c(C(=O)NC[C@@H]3CCN(CCCCOC)C[C@H]3O)c1)OCCO2 [compound 54],14.8
26,CNc1cc2c(c(C(=O)NC[C@@H]3CCN(CCC4OCCO4)C[C@H]3O)c1)OCCO2 [compound 17],25.7
27,Nc1cc(C(=O)NC[C@@H]2CCN(CC3CCCO3)C[C@H]2O)c2c(c1Br)OCCO2 (some centres unmarked) [compound 137],27.5
28,N#CCCCN1CC[C@@H](CNC(=O)c2cc(N)c(Cl)c3c2OCCCO3)[C@H](O)C1 [compound 48],33.1

# Second part, the compound after the results:
row,IC50 [nM],SMILES
1,93.3,CCCNc1cc2c(c(C(=O)NC[C@@H]3CCN(CCC4OCCO4)C[C@H]3O)c1)OCCCO2 [compound 135]
2,64.6,Cc1cc2c(c(C(=O)NC[C@@H]3CCNC[C@H]3O)c1)OCCCO2 [compound 5]
3,100,CCNc1cc2c(c(C(=O)NC[C@@H]3CCN(CCCC#N)C[C@H]3O)c1)OCCCO2 [compound 182]
4,61.7,CCCCNc1cc2c(c(C(=O)NC[C@@H]3CCN(CCCC)C[C@H]3O)c1)OCCCO2 [compound 143]
5,37.2,Cc1cc2c(c(C(=O)NC[C@H]3CCN(CCCC(N)=O)C[C@H]3O)c1)OCCCO2 [compound 249]
6,372,Nc1cc(C(=O)NC[C@@H]2CCNC[C@H]2O)c2c(c1Cl)OCCO2 [compound 8]
7,8.32,CCCCN1CC[C@@H](CNC(=O)c2cc(NC)cc3c2OCCCO3)[C@H](O)C1 [compound 114]
8,20,N#CCCCN1CC[C@@H](CNC(=O)c2cc(C#N)cc3c2OCCCO3)[C@H](O)C1 [compound 160]
9,708,CNc1cc2c(c(C(=O)NC[C@@H]3CCN(CCC4OCCO4)C[C@H]3O)c1)OCCCO2 [compound 13]
10,38,N#CCCCN1CC[C@@H](CNC(=O)c2cc(N)cc3c2OCCCO3)[C@H](O)C1 [compound 3]
11,43.7,N#CCc1cc2c(c(C(=O)NC[C@@H]3CCN(CCCO)C[C@H]3O)c1)OCCCO2 [compound 120]
12,16.2,CCNc1cc2c(c(C(=O)NC[C@@H]3CCN(CCC4OCCO4)C[C@H]3O)c1)OCCCO2 [compound 176]
13,2.75,Cc1cc2c(c(C(=O)NC[C@@H]3CCN(CCCS(C)(=O)=O)C[C@H]3O)c1)OCCCO2 [compound 205]
14,63.1,COCCN1CC[C@@H](CNC(=O)c2cc(N)cc3c2OCCO3)[C@H](O)C1 [compound 32]
15,69.2,CNc1cc2c(c(C(=O)NC[C@@H]3CCN(CCCC(C)=O)C[C@H]3O)c1)OCCCO2 [compound 77]
16,0.49,COCCCCN1CC[C@@H](CNC(=O)c2cc(C)cc3c2OCCCO3)[C@H](O)C1 [compound 234]
17,117,CCCCN1CC[C@@H](CNC(=O)c2cc(NC(C)C)cc3c2OCCCO3)[C@H](O)C1 [compound 174]
18,63.1,COCCCN1CC[C@@H](CNC(=O)c2cc(NC(C)C)cc3c2OCCCO3)[C@H](O)C1 [compound 179]
19,89.1,CCCNc1cc2c(c(C(=O)NC[C@@H]3CCN(CCCO)C[C@H]3O)c1)OCCCO2 [compound 151]
20,1.86,Cc1cc2c(c(C(=O)NC[C@@H]3CCN(CCCNS(C)(=O)=O)C[C@H]3O)c1)OCCCO2 [compound 189]
21,0.501,Cc1cc2c(c(C(=O)NC[C@@H]3CCN(CCCCNc4ncccn4)C[C@H]3O)c1)OCCCO2 [compound 230]
22,14.8,Nc1cc2c(c(C(=O)NC[C@@H]3CCN(CCCCO)C[C@H]3O)c1)OCCO2 [compound 98]

row,IC50 [nM],SMILES
1,2.14,CCCCN1CCC(O)(CNC(=O)c2cc(C)cc3c2OCCCO3)CC1 [compound 245]
2,41.7,CNc1cc2c(c(C(=O)NC[C@@H]3CCN(CCCO)C[C@H]3O)c1)OCCO2 [compound 12]
3,14.5,Cc1cc2c(c(C(=O)NC[C@@H]3CCN(CCC#N)C[C@H]3O)c1)OCCCO2 [compound 201]
4,32.4,COCc1cc2c(c(C(=O)NC[C@@H]3CCN(CCCO)C[C@H]3O)c1)OCCCO2 [compound 122]
5,1410,CCNc1cc2c(c(C(=O)NC[C@@H]3CCNC[C@H]3O)c1)OCCCO2 [compound 178]
6,2.51,CC1(CCCN2CC[C@H](CNC(=O)c3cc(C#N)cc4c3OCCCO4)[C@@H](O)C2)OCCO1 [compound 220]
7,1230,Nc1cc2c(c(C(=O)NC[C@@H]3CCN(CCCC(=O)O)C[C@H]3O)c1)OCCCO2 [compound 39]
8,229,CNCCCCN1CC[C@@H](CNC(=O)c2cc(NC)cc3c2OCCCO3)[C@H](O)C1 [compound 91]
9,37.2,CO[C@@H]1CN(CCCO)CC[C@H]1CNC(=O)c1cc(C#N)cc2c1OCCCO2 [compound 207]
10,363,CNCCCCN1CC[C@@H](CNC(=O)c2cc(N)cc3c2OCCCO3)[C@H](O)C1 [compound 106]
11,55,Nc1cc2c(c(C(=O)NC[C@@H]3CCN(CCCCO)C[C@H]3O)c1)OCCCO2 [compound 73]
12,120,CNc1cc2c(c(C(=O)NC[C@@H]3CCN(CCNS(C)(=O)=O)C[C@H]3O)c1)OCCCO2 [compound 102]
13,91.2,CS(=O)(=O)NCCN1CC[C@@H](CNC(=O)c2cc(N)cc3c2OCCO3)[C@H](O)C1 [compound 132]
14,36.3,COCCCN1CC[C@@H](CNC(=O)c2cc(N)cc3c2OCCO3)[C@H](O)C1 [compound 109]
15,69.2,Nc1cc2c(c(C(=O)NC[C@@H]3CCN(CC4CCCO4)C[C@H]3O)c1)OCCCO2 (some centres unmarked) [compound 4]
16,135,COCCN1CC[C@@H](CNC(=O)c2cc(N)cc3c2OCCCO3)[C@H](O)C1 [compound 45]
17,708,N#CCc1cc2c(c(C(=O)NC[C@@H]3CCNC[C@H]3O)c1)OCCCO2 [compound 121]
18,36.3,CNc1cc2c(c(C(=O)NC[C@@H]3CCN(CCNc4nccnc4C)C[C@H]3O)c1)OCCCO2 [compound 95]
19,490,Nc1cc2c(c(C(=O)NC[C@@H]3CCN(CCOCCO)C[C@H]3O)c1)OCCCO2 [compound 69]
20,16.2,CCCCN1CC[C@@H](CNC(=O)c2cc(NC)cc3c2OCCO3)[C@H](O)C1 [compound 116]
21,95.5,CCCCN1CC[C@@H](CNC(=O)c2cc(NCCC)cc3c2OCCCO3)[C@H](O)C1 [compound 134]
